# Assay results from ChEMBL document CHEMBL1201862, “PubChem BioAssay data set” (2004).
#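 Cultured in 96-well plates, cells were exposed to test compound for 48 hours across five concentrations. GI50 marks 50% less growth.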 Activity calls are given as the source filed them. Rule as the data show it: active = GI50 up to about 1.1 µM and inactive = higher.
# Legend:
# Assay in all cases: growth of human tumour cells (NCI), 48 h
# SF-539 = tested on: SF-539
# HCT-15 = tested on: HCT-15
# SF-268 = tested on: SF-268
# SF-295 = tested on: SF-295
# K562 = tested on: K562
# SR = tested on: SR
# SK-MEL-5 = tested on: SK-MEL-5
# ACHN = tested on: ACHN
# Malme-3M = tested on: Malme-3M
# M14 = tested on: M14
# SNB-75 = tested on: SNB-75
# NCI/ADR-RES = tested on: NCI/ADR-RES
# MDA-MB-231 = tested on: MDA-MB-231
# COLO 205 = tested on: COLO 205
# SN12C = tested on: SN12C
# SK-MEL-2 = tested on: SK-MEL-2
# PC-3 = tested on: PC-3
# SK-MEL-28 = tested on: SK-MEL-28
# RXF 393 = tested on: RXF 393
# NCI-H522 = tested on: NCI-H522
# OVCAR-4 = tested on: OVCAR-4
# MDA-N = tested on: MDA-N
# CAKI-1 = tested on: CAKI-1
# T47D = tested on: T47D
# MOLT-4 = tested on: MOLT-4
# UO-31 = tested on: UO-31
# HCT-116 = tested on: HCT-116
# RPMI-8226 = tested on: RPMI-8226
# SW-620 = tested on: SW-620
# OVCAR-5 = tested on: OVCAR-5
# OVCAR-8 = tested on: OVCAR-8
# MDA-MB-435 = tested on: MDA-MB-435
# TK-10 = tested on: TK-10
# MCF7 = tested on: MCF7
# UACC-62 = tested on: UACC-62
# NCI-H23 = tested on: NCI-H23
# DU-145 = tested on: DU-145
# U-251 = tested on: U-251
# EKVX = tested on: EKVX
# HCC 2998 = tested on: HCC 2998
# KM12 = tested on: KM12
# BT-549 = tested on: BT-549
# SK-OV-3 = tested on: SK-OV-3
# NCI-H226 = tested on: NCI-H226
# UACC-257 = tested on: UACC-257
# NCI-H460 = tested on: NCI-H460
# SNB-19 = tested on: SNB-19
# A549 = tested on: A549
# LOX IMVI = tested on: LOX IMVI
# HT-29 = tested on: HT-29
# IGROV-1 = tested on: IGROV-1
# HOP-62 = tested on: HOP-62
# 786-0 = tested on: 786-0
# A498 = tested on: A498
# CCRF-CEM = tested on: CCRF-CEM
# HL-60 = tested on: HL-60
# HOP-92 = tested on: HOP-92
# OVCAR-3 = tested on: OVCAR-3
# Hs-578T = tested on: Hs-578T
structure (smiles),measurement,setting,value
C[C@@H]1CC[C@@H]2[C@@H](C1)O[C@@H]([C@H](C)OCc1ccccc1)SC2(C)C,GI50,SF-539,29.2 µM (inactive)
same,GI50,HCT-15,27.8 µM
same,GI50,SF-268,32.3 µM (inactive)
same,GI50,SF-295,17.5 µM (inactive)
same,GI50,K562,19.6 µM (inactive)
same,GI50,SR,18.2 µM (inactive)
same,GI50,SK-MEL-5,18.1 µM (inactive)
same,GI50,ACHN,18.8 µM (inactive)
same,GI50,Malme-3M,22.6 µM (inactive)
same,GI50,M14,16.8 µM (inactive)
same,GI50,SNB-75,16.4 µM (inactive)
same,GI50,NCI/ADR-RES,25.5 µM (inactive)
same,GI50,MDA-MB-231,19.7 µM (inactive)
same,GI50,COLO 205,19.3 µM (inactive)
same,GI50,SN12C,18.7 µM (inactive)
same,GI50,SK-MEL-2,17.5 µM (inactive)
same,GI50,PC-3,31.5 µM (inactive)
same,GI50,SK-MEL-28,32.1 µM (inactive)
same,GI50,RXF 393,17.6 µM (inactive)
same,GI50,NCI-H522,19.7 µM (inactive)
same,GI50,OVCAR-4,28.3 µM (inactive)
same,GI50,MDA-N,23.7 µM (inactive)
same,GI50,CAKI-1,34.8 µM (inactive)
same,GI50,T47D,15.7 µM (inactive)
same,GI50,MOLT-4,18.4 µM (inactive)
same,GI50,UO-31,14.5 µM (inactive)
same,GI50,HCT-116,14.7 µM (inactive)
same,GI50,RPMI-8226,17.4 µM (inactive)
same,GI50,SW-620,18.9 µM (inactive)
same,GI50,OVCAR-5,16.3 µM (inactive)
same,GI50,OVCAR-8,31.5 µM (inactive)
same,GI50,MDA-MB-435,30.3 µM (inactive)
same,GI50,TK-10,32.1 µM (inactive)
same,GI50,MCF7,16.9 µM (inactive)
same,GI50,UACC-62,36.4 µM (inactive)
same,GI50,NCI-H23,31.8 µM (inactive)
same,GI50,DU-145,37.3 µM (inactive)
same,GI50,U-251,17.9 µM (inactive)
same,GI50,EKVX,45 µM (inactive)
same,GI50,HCC 2998,17.9 µM (inactive)
same,GI50,KM12,18.5 µM (inactive)
same,GI50,BT-549,39.4 µM (inactive)
same,GI50,SK-OV-3,30.5 µM (inactive)
same,GI50,NCI-H226,18.4 µM (inactive)
same,GI50,UACC-257,25.5 µM (inactive)
same,GI50,NCI-H460,20.7 µM (inactive)
same,GI50,SNB-19,21.3 µM (inactive)
same,GI50,A549,26.3 µM (inactive)
same,GI50,LOX IMVI,18.4 µM (inactive)
same,GI50,HT-29,36 µM (inactive)
same,GI50,IGROV-1,41.8 µM (inactive)
same,GI50,HOP-62,34.4 µM (inactive)
same,GI50,786-0,21.2 µM (inactive)
same,GI50,A498,19.7 µM (inactive)
C1CSCC2(COC2)CSCCSCC2(COC2)CS1,GI50,SF-539,> 100 µM (inactive)
same,GI50,HCT-15,> 100 µM
same,GI50,SF-268,> 100 µM (inactive)
same,GI50,SF-295,> 100 µM (inactive)
same,GI50,K562,> 100 µM (inactive)
same,GI50,SR,> 100 µM (inactive)
same,GI50,SK-MEL-5,> 100 µM (inactive)
same,GI50,M14,> 100 µM (inactive)
same,GI50,SNB-75,35.6 µM (inactive)
same,GI50,NCI/ADR-RES,> 100 µM (inactive)
same,GI50,MDA-MB-231,> 100 µM (inactive)
same,GI50,COLO 205,> 100 µM (inactive)
same,GI50,SN12C,> 100 µM (inactive)
same,GI50,PC-3,> 100 µM (inactive)
same,GI50,SK-MEL-28,> 100 µM (inactive)
same,GI50,NCI-H522,> 100 µM (inactive)
same,GI50,OVCAR-4,> 100 µM (inactive)
same,GI50,MDA-N,> 100 µM (inactive)
same,GI50,T47D,> 100 µM (inactive)
same,GI50,MOLT-4,> 100 µM (inactive)
same,GI50,UO-31,> 100 µM (inactive)
same,GI50,HCT-116,> 100 µM (inactive)
same,GI50,SW-620,> 100 µM (inactive)
same,GI50,OVCAR-5,> 100 µM (inactive)
same,GI50,OVCAR-8,> 100 µM (inactive)
same,GI50,MDA-MB-435,> 100 µM (inactive)
same,GI50,TK-10,> 100 µM (inactive)
same,GI50,MCF7,> 100 µM (inactive)
same,GI50,UACC-62,> 100 µM (inactive)
same,GI50,NCI-H23,> 100 µM (inactive)
same,GI50,CCRF-CEM,> 100 µM (inactive)
same,GI50,DU-145,> 100 µM (inactive)
same,GI50,U-251,> 100 µM (inactive)
same,GI50,EKVX,> 100 µM (inactive)
same,GI50,HCC 2998,> 100 µM (inactive)
same,GI50,KM12,> 100 µM (inactive)
same,GI50,BT-549,> 100 µM (inactive)
same,GI50,SK-OV-3,> 100 µM (inactive)
same,GI50,HL-60,> 100 µM (inactive)
same,GI50,HOP-92,> 100 µM (inactive)
same,GI50,OVCAR-3,> 100 µM (inactive)
same,GI50,UACC-257,> 100 µM (inactive)
same,GI50,NCI-H460,> 100 µM (inactive)
same,GI50,SNB-19,> 100 µM (inactive)
same,GI50,A549,> 100 µM (inactive)
same,GI50,LOX IMVI,> 100 µM (inactive)
same,GI50,HT-29,> 100 µM (inactive)
same,GI50,IGROV-1,> 100 µM (inactive)
same,GI50,HOP-62,> 100 µM (inactive)
same,GI50,786-0,> 100 µM (inactive)
COC(=O)c1nc2c(C)c(O)c(O)c([C@H](C)CCC=C(C)C)c2o1,GI50,SF-539,20 µM (inactive)
same,GI50,HCT-15,14 µM
same,GI50,SF-268,33.3 µM (inactive)
same,GI50,SF-295,25 µM (inactive)
same,GI50,K562,50.6 µM (inactive)
same,GI50,SR,7 µM (inactive)
same,GI50,SK-MEL-5,13 µM (inactive)
same,GI50,ACHN,22.6 µM (inactive)
same,GI50,Malme-3M,26.7 µM (inactive)
same,GI50,M14,37.3 µM (inactive)
same,GI50,SNB-75,18.2 µM (inactive)
same,GI50,NCI/ADR-RES,25.2 µM (inactive)
same,GI50,MDA-MB-231,45.1 µM (inactive)
same,GI50,COLO 205,16.2 µM (inactive)
same,GI50,SK-MEL-2,20.5 µM (inactive)
same,GI50,PC-3,26.6 µM (inactive)
same,GI50,SK-MEL-28,32.7 µM (inactive)
same,GI50,RXF 393,21.4 µM (inactive)
same,GI50,OVCAR-4,30.1 µM (inactive)
same,GI50,CAKI-1,23.8 µM (inactive)
same,GI50,T47D,39.8 µM (inactive)
same,GI50,MOLT-4,24.9 µM (inactive)
same,GI50,UO-31,17.7 µM (inactive)
same,GI50,HCT-116,8.34 µM (inactive)
same,GI50,RPMI-8226,13 µM (inactive)
same,GI50,SW-620,39.5 µM (inactive)
same,GI50,OVCAR-5,58.6 µM (inactive)
same,GI50,OVCAR-8,38.5 µM (inactive)
same,GI50,MDA-MB-435,26.8 µM (inactive)
same,GI50,TK-10,39 µM (inactive)
same,GI50,MCF7,36.3 µM (inactive)
same,GI50,UACC-62,> 10 µM (inactive)
same,GI50,Hs-578T,30.5 µM (inactive)
same,GI50,NCI-H23,28.1 µM (inactive)
same,GI50,CCRF-CEM,2.64 µM (inactive)
same,GI50,DU-145,65.5 µM (inactive)
same,GI50,U-251,28.5 µM (inactive)
same,GI50,EKVX,29.7 µM (inactive)
same,GI50,HCC 2998,30.1 µM (inactive)
same,GI50,KM12,23.3 µM (inactive)
same,GI50,BT-549,37.6 µM (inactive)
same,GI50,SK-OV-3,40.6 µM (inactive)
same,GI50,NCI-H226,17.9 µM (inactive)
same,GI50,HL-60,16.7 µM (inactive)
same,GI50,HOP-92,26.5 µM (inactive)
same,GI50,OVCAR-3,26.5 µM (inactive)
same,GI50,UACC-257,28.4 µM (inactive)
same,GI50,NCI-H460,46.5 µM (inactive)
same,GI50,SNB-19,38.5 µM (inactive)
same,GI50,A549,27.9 µM (inactive)
same,GI50,LOX IMVI,43.2 µM (inactive)
same,GI50,HT-29,19.5 µM (inactive)
same,GI50,IGROV-1,20.9 µM (inactive)
same,GI50,HOP-62,16.5 µM (inactive)
same,GI50,786-0,18.6 µM (inactive)
same,GI50,A498,21.7 µM (inactive)
